From US20240391882A1 (Mirati Therapeutics, Inc., priority 2023, published 2024)

Legend:
[1] = tested on: pAKT in T47D (PI3Kα H1047R mutant) cells; assay: Inhibition of pAKT (alphaLISA Surefire Ultra AKT 1/2/3 pS473) in T47D cells; assay type: cell-based; conditions: Homo sapiens; T47D (PI3Kα H1047R mutant) cells, 24 hr compound incubation, alphaLISA pS473; read-out: T47D (H1047R) pAKT 24 hr (IC50)
Description: The ability of a compound of Formula (I) to inhibit the formation of pAKT was measured using alphaLISA Surefire Ultra AKT 1/2/3 (pS473) Assay Kit (#ALSU-PAKT-B50K) was obtained from Perkin Elmer (Waltham, MA).
To prepare assay plates for pAKT alphaLISA assays, cells were trypsinized, resuspended in fresh media, and viable cells were counted utilizing trypan blue exclusion. Prior to seeding, cells were washed with PBS and resuspended in HBSS (Gibco, #14025092). T47D (12,000/w), SKBR3 (12,000/w), or MKN1 (24,000/w) cells were seeded at 12 μl per well in a solid white flat bottom 384 cell culture plate (Perkin Elmer #6007680).
Immediately after seeding, cells were dosed using an Echo Liquid Handler (Beckman Coulter) with compounds at a 10.4 μm starting concentration and serially diluted (1:4) for a total of 10 concentrations. 14 vehicle (DMSO) and 14 positive control (Alpelisib @3.125 μm) wells were included on each assay plate. Cells were incubated with the compounds (solubilized in DMSO) for approximately 24 hours at 37° C. After 24 hours of treatment, cells were lysed with 3 μl of the 5× lysis buffer (provided and incubated at room temperature for 15 min on a microtiter plate shaker). Once cells were sufficiently lysed, 7.5 μl of the acceptor bead mix (made using the manufacturers recommended dilutions) was added to each well and left on the microtiter plate shaker for 1 min prior to incubating plates at room temperature for 1 hour, in the absence of light. After 1 hour of incubation with the acceptor bead mix, 7.5 μl of the donor bead mix (made using the manufacturers recommended dilutions) was added to each well and left on the microtiter plate shaker for 1 min prior to incubating plates at room temperature overnight in the absence of light. Plates were then imaged the following day using a CLARIOstar microplate reader (BMG Labtech, Germany).
Percent of control values were calculated by subtracting the average signal from the positive control (alpelisib) treated wells from all treated wells (including DMSO control wells) and then divided by the average signal from the vehicle DMSO treated control wells. Percent of vehicle control values were plotted as log(inhibitor) vs. response—Variable slope (four parameters) for curve fitting and IC50 values were determined using XLfit.

[2] = tested on: T47D (PI3Kα H1047R mutant) cells; assay: Cell viability (CellTiter-Glo 2.0) in T47D cells; assay type: cell-based; conditions: Homo sapiens, T47D, 72 h, approximately 72 hours
Description: This Example illustrates that representative compounds of the invention decrease the viability of cells.
The ability of a compound of Formula (I) to decrease the viability of cells was measured using CellTiter-Glo 2.0 (CTG) Luminescent Cell Viability Assay (#G9241) obtained from Promega (Madison, WI).
To prepare assay plates for viability assays, cells were trypsinized, resuspended in fresh media, and viable cells were counted utilizing trypan blue exclusion. T47D, SKBR3, or MKN1 cells were seeded at 1000 cells in 30 μl per well in a solid white flat bottom 384 cell culture plate (Perkin Elmer #6007680) and incubated at 37° C. overnight.
Assay day 1, cells were dosed using an Echo Liquid Handler (Beckman Coulter) with compounds at a 10 μm starting concentration and serially diluted (1:4) for a total of 10 concentrations. Cells were incubated for approximately 72 hours with the compounds (solubilized in DMSO) at 37° C. After 72 hours of treatment, cell plates were equilibrated to room temperature before adding 15 μl of CTG to each well, plates were then covered in aluminum foil to protect from light, incubated at room temperature for 30 minutes on a microtiter plate shaker, and luminescence readings were collected using a CLARIOstar microplate reader (BMG Labtech, Germany). Percent of vehicle control values were plotted as log(inhibitor) vs. response—Variable slope (four parameters) for curve fitting and IC50 values were determined using XLfit.

Compound	IC50 [1] [nM]	IC50 [2] [nM]
Cc1cc([C@@H](C)Nc2ccc(Cl)nc2C(=O)O)c2nc(N3CCN(c4ncc(C)s4)CC3)c(C#N)nc2c1 [Example 115, (R)-6-chloro-3-((1-(2-cyano-7-methyl-3-(4-(5-methylthiazol-2-yl)piperazin-1-yl)quinoxalin-5-yl)ethyl)amino)picolinic acid]	1	31.3
Cc1cc([C@@H](C)Nc2ccc(Cl)nc2C(=O)O)c2nc(N3CC(F)(F)C4(CC4)C3)c(C#N)nc2c1 [Example 116, (R)-6-chloro-3-((1-(2-cyano-3-(7,7-difluoro-5-azaspiro[2.4]heptan-5-yl)-7-methylquinoxalin-5-yl)ethyl)amino)picolinic acid]	15	202
Cc1cc([C@@H](C)Nc2ccc(Cl)nc2C(=O)O)c2nc(-n3ccnc3)c(C#N)nc2c1 [Example 117, (R)-6-chloro-3-((1-(2-cyano-3-(1H-imidazol-1-yl)-7-methylquinoxalin-5-yl)ethyl)amino)picolinic acid]	66	498
Cc1cc([C@@H](C)Nc2ccc(Cl)nc2C(=O)O)c2nc(N3C4CCC3COC4)c(C#N)nc2c1 [Example 120, 3-(((1R)-1-(3-(3-oxa-8-azabicyclo[3.2.1]octan-8-yl)-2-cyano-7-methylquinoxalin-5-yl)ethyl)amino)-6-chloropicolinic acid]	2.4	56.4
Cc1cc([C@@H](C)Nc2ccc(Cl)nc2C(=O)O)c2nc(N3C[C@@H](F)[C@@H](F)C3)c(C#N)nc2c1 [Example 122, 6-chloro-3-(((R)-1-(2-cyano-3-((3S,4R)-3,4-difluoropyrrolidin-1-yl)-7-methylquinoxalin-5-yl)ethyl)amino)picolinic acid]	1.3	33.8
Cc1cc([C@@H](C)Nc2ccc(Cl)nc2C(=O)O)c2nc(N3CC(C)(C)C(F)(F)C3)c(C#N)nc2c1 [Example 123, (R)-6-chloro-3-((1-(2-cyano-3-(3,3-difluoro-4,4-dimethylpyrrolidin-1-yl)-7-methylquinoxalin-5-yl)ethyl)amino)picolinic acid]	66.8	273
Cc1cc([C@@H](C)Nc2ccc(Cl)nc2C(=O)O)c2nc(NCCC(F)(F)F)c(C#N)nc2c1 [Example 124, (R)-6-chloro-3-((1-(2-cyano-7-methyl-3-((3,3,3-trifluoropropyl)amino)quinoxalin-5-yl)ethyl)amino)picolinic acid]	1.9	126
Cc1cc([C@@H](C)Nc2ccc(Cl)nc2C(=O)O)c2nc(NCCC(=O)N(C)C)c(C#N)nc2c1 [Example 125, (R)-6-chloro-3-((1-(2-cyano-3-((3-(dimethylamino)-3-oxopropyl)amino)-7-methylquinoxalin-5-yl)ethyl)amino)picolinic acid]	2.7	163
Cc1cc([C@@H](C)Nc2ccc(Cl)nc2C(=O)O)c2nc(N3CCC(c4ccnn4C)CC3)c(C#N)nc2c1 [Example 126, (R)-6-chloro-3-((1-(2-cyano-7-methyl-3-(4-(1-methyl-1H-pyrazol-5-yl)piperidin-1-yl)quinoxalin-5-yl)ethyl)amino)picolinic acid]	0.8	24.8
Cc1cc([C@@H](C)Nc2ccccc2C(=O)O)c2nc(N3CC(F)(F)C3)c(C#N)nc2c1 [Example 127, (R)-2-((1-(2-cyano-3-(3,3-difluoroazetidin-1-yl)-7-methylquinoxalin-5-yl)ethyl)amino)benzoic acid]	8.4	296
Cc1cc([C@@H](C)Nc2ccc(Cl)nc2C(=O)O)c2nc(N3CC(F)(F)C3)c(C#N)nc2c1 [Example 128, (R)-6-chloro-3-((1-(2-cyano-3-(3,3-difluoroazetidin-1-yl)-7-methylquinoxalin-5-yl)ethyl)amino)picolinic acid]	1.4	121
Cc1cc([C@@H](C)Nc2ccccc2C(=O)O)c2nc(N3CCC4(CC3)C(F)(F)C4(F)F)c(C#N)nc2c1 [Example 129, (R)-2-((1-(2-cyano-7-methyl-3-(1,1,2,2-tetrafluoro-6-azaspiro[2.5]octan-6-yl)quinoxalin-5-yl)ethyl)amino)benzoic acid]	18.8	330
Cc1cc([C@@H](C)Nc2ccc(Cl)nc2C(=O)O)c2nc(N3CC[C@H](CO)C3)c(C#N)nc2c1 [Example 158, 6-chloro-3-(((R)-1-(2-cyano-3-((S)-3-(hydroxymethyl)pyrrolidin-1-yl)-7-methylquinoxalin-5-yl)ethyl)amino)picolinic acid]	3.6	88.1
Cc1cc([C@@H](C)Nc2ccc(Cl)nc2C(=O)O)c2nc(N3CC[C@@H](CO)C3)c(C#N)nc2c1 [Example 159, 6-chloro-3-(((R)-1-(2-cyano-3-((R)-3-(hydroxymethyl)pyrrolidin-1-yl)-7-methylquinoxalin-5-yl)ethyl)amino)picolinic acid]	2.6	70.3
CC(=O)N1CCN(c2nc3c([C@@H](C)Nc4ccc(Cl)nc4C(=O)O)cc(C)cc3nc2C#N)CC1 [Example 160, (R)-3-((1-(3-(4-acetylpiperazin-1-yl)-2-cyano-7-methylquinoxalin-5-yl)ethyl)amino)-6-chloropicolinic acid]	4.6	85.8
Cc1cc([C@@H](C)Nc2ccc(Cl)nc2C(=O)O)c2nc(N3CCC(=O)CC3)c(C#N)nc2c1 [Example 161, (R)-6-chloro-3-((1-(2-cyano-7-methyl-3-(4-oxopiperidin-1-yl)quinoxalin-5-yl)ethyl)amino)picolinic acid]	4.6	47.6
Cc1cc([C@@H](C)Nc2ccc(Cl)nc2C(=O)O)c2nc(N3CCc4ccncc4C3)c(C#N)nc2c1 [Example 162, (R)-6-chloro-3-((1-(2-cyano-3-(3,4-dihydro-2,7-naphthyridin-2(1H)-yl)-7-methylquinoxalin-5-yl)ethyl)amino)picolinic acid]	1.6	35
Cc1cc([C@@H](C)Nc2ccc(Cl)nc2C(=O)O)c2nc(N3C[C@@H]4[C@H](CO)[C@@H]4C3)c(C#N)nc2c1 [Example 163, 6-chloro-3-(((R)-1-(2-cyano-3-((1R,5S,6S)-6-(hydroxymethyl)-3-azabicyclo[3.1.0]hexan-3-yl)-7-methylquinoxalin-5-yl)ethyl)amino)picolinic acid]	6.8	191
COC[C@@H]1[C@H]2CN(c3nc4c([C@@H](C)Nc5ccc(Cl)nc5C(=O)O)cc(C)cc4nc3C#N)C[C@@H]12 [Example 166, 6-chloro-3-(((R)-1-(2-cyano-3-((1R,5S,6R)-6-(methoxymethyl)-3-azabicyclo[3.1.0]hexan-3-yl)-7-methylquinoxalin-5-yl)ethyl)amino)picolinic acid]	1.2	38.6
Cc1cc([C@@H](C)Nc2ccc(Cl)nc2C(=O)O)c2nc(N3C[C@@H]4[C@@H](CO)[C@@H]4C3)c(C#N)nc2c1 [Example 167, 6-chloro-3-(((R)-1-(2-cyano-3-((1R,5S,6R)-6-(hydroxymethyl)-3-azabicyclo[3.1.0]hexan-3-yl)-7-methylquinoxalin-5-yl)ethyl)amino)picolinic acid]	4.6	150
Cc1cc([C@@H](C)Nc2ccc(Cl)nc2C(=O)O)c2nc(N3C[C@@H]4C[C@H]3CO4)c(C#N)nc2c1 [Example 173, 3-(((R)-1-(3-((1S,4S)-2-oxa-5-azabicyclo[2.2.1]heptan-5-yl)-2-cyano-7-methylquinoxalin-5-yl)ethyl)amino)-6-chloropicolinic acid]	0.3	26.8
